Measured values as given in patent US20070161108A1, “Bob-1 specific T cells and methods to use” (priority 2004, published 2007).

What was measured:
[1] = system: T-cell lines from an HIV-2 infected patient; test: gamma-interferon-ELISPOT-assay, T-cell lines from an HIV-2 infected patient (FIG. 12); type: cell-based, human; conditions: PBMC stimulated by pool of 5 overlapping peptides aa151-210
Experimental: FIG. 12 Recognition of Bob-1 specific peptide aa171-190 by T-cell lines from an HIV-2 infected patient. PBMC from the patient had been stimulated by a pool of 5 overlapping peptides spanning aa151-210 of the Bob-1 sequence. Outgrowing cells were tested in a gamma-interferon-ELISPOT-assay of recognition of the peptide pool aa151-210 and of the individual peptides.

[2] = system: PBMC of a healthy person; test: gamma-IFN-ELISPOT, in vitro stimulation of PBMC of a healthy person with peptide-loaded dendritic cells (FIG. 14); type: cell-based, human; conditions: pool 1 or pool 4 presented by autologous dendritic cells
From the text: Given are the number of peptide-specific T-cells after stimulation of the pool 1-specific or the pool 4-specific cell lines with the respective pools and the indicated peptides. […] The T-cell lines had been generated by stimulation of peripheral blood mononuclear cells (PBMC) with five different pools containing each five 20 amino acid (aa) long peptides with a 10 amino acid long overlap, corresponding to aa 1 to aa 256 of the Bob-1 protein. The peptide pools were presented by autologous dendritic cells that had been generated by a standard protocoll (Berger T G, Feuerstein B, Strasser E, Hirsch U, Schreiner D, Schuler G, Schuler-Thurner B. Large-scale generation of mature monocyte-derived dendritic cells for clinical application in cell factories. Journal of immunological methods 2002, 268: 131-140). […] Therefore, it represents a model for an in vivo induction of a Bob-1 specific T-cell response.
For this, PBMC of a healthy person were stimulated—as described above—with autologous dendritic cells loaded with a selection of Bob-1 derived peptides. […]

## QAPLTYFPWPQPLSTLPTST [peptide aa171-190]
[1]
  Recognition in gamma-interferon-ELISPOT: specific recognition
[2]
  Recognition by T-cell lines, or induction of Bob-1-specific T-cells, gamma-IFN-ELISPOT: specific recognition
